According to US4460777A, “N-Substituted-2-pyridylindoles” (Ciba-Geigy Corporation, priority 1982, dated 1984):

Key:
[1] = molecular target: T1, prostaglandin cyclooxygenase (Ovis aries, UniProt P05979); test: in-vitro effect on prostaglandin cyclooxygenase; type: biochemical, sheep; details: 50% reduction in PGE2 synthesized, read-out: IC50 for inhibition of cyclooxygenase
T1 construct: Lyophilized sheep seminal vesicle microsomes are utilized as the prostaglandin-synthesizing enzyme preparation; from tissue; host or cells: lyophilized sheep seminal vesicle microsomes
T1 sequence (P05979 25-600): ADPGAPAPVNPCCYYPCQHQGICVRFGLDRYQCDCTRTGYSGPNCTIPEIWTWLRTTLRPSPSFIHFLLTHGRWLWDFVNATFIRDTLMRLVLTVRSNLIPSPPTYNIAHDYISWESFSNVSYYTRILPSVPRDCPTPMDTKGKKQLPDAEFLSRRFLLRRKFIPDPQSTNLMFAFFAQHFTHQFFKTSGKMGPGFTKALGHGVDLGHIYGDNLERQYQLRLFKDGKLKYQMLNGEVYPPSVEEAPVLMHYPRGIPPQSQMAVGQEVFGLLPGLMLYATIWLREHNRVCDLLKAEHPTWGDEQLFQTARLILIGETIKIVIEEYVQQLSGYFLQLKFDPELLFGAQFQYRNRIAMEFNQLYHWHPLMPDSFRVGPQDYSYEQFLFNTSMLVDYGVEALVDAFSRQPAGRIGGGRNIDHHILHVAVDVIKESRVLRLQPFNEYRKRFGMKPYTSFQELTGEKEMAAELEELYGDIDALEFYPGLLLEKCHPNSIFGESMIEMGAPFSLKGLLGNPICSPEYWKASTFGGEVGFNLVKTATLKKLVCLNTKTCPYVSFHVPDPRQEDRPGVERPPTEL
Method: The in-vitro effect on prostaglandin cyclooxygenase is measured by a modification of the method of Takeguchi et al. described in Biochemistry 10, 2372 (1971); the testing procedure is as follows: Lyophilized sheep seminal vesicle microsomes are utilized as the prostaglandin-synthesizing enzyme preparation. The conversion of ^14 C-arachidonic acid to PGE2 is measured. Test compounds (dissolved in buffer, or if necessary, in small amount of ethanol) are added to the incubation mixture. The prostaglandins are extracted and separated by thin-layer chromatography; the plates are scanned, the radioactive zones corresponding to PGE2 are transferred to liquid scintillation vials and counted for radioactivity. IC50 values for inhibition are determined graphically as the concentration of test compound causing a 50% reduction in the amount of PGE2 synthesized.

[2] = molecular target: T2, prostacyclin (PGI2) synthetase (Bos taurus, UniProt Q29626); test: in-vitro effect on prostacyclin (PGI2) synthetase; type: biochemical, bovine; details: ratio 6-keto-PGF1α/PGE2 reduced to 50% of control, read-out: IC50 for inhibition of prostacyclin synthetase
T2 construct: crude PGI2 synthetase in the form of a microsomal fraction of bovine aorta; from tissue; host or cells: bovine aorta, microsomal fraction
T2 sequence (Q29626 1-500): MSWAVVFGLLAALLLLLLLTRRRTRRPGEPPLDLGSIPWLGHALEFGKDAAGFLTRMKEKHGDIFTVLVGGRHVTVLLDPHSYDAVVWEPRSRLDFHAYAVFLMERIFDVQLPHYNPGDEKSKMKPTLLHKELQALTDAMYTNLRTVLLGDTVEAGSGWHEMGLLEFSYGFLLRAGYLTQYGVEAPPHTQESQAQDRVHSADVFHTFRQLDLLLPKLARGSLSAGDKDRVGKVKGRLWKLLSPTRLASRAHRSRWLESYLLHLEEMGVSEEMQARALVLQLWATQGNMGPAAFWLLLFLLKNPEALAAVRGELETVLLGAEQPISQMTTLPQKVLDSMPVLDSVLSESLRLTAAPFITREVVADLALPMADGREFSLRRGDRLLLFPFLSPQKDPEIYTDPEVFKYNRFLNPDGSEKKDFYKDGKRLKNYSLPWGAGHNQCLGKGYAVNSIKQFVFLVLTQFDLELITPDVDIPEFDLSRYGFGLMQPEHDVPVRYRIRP
Method: The in-vitro effect on prostacyclin (PGI2) synthetase is measured analogous to the method of Sun et al., Prostaglandins 14, 1055 (1977);
The testing procedure is as follows:
^14 C-Arachidonic acid is incubated with an enzyme mixture consisting of solubilized and partially purified prostaglandin cyclo-oxygenase from sheep seminal vesicles and crude PGI2 synthetase in the form of a microsomal fraction of bovine aorta.
Test compound (dissolved in buffer, or if necessary, in a small amount of ethanol) is placed in the incubation medium. The reaction mixture is incubated in 100 mM Tris HCl (pH 7.5) for 30 minutes at 37° C., acidified to pH 3 and extracted into ethyl acetate. The extract is evaporated to dryness; the residue is dissolved in acetone, spotted on thin-layer plates and chromatographed in a solvent system described in Sun et al. The radioactive zones are located with a scanner; those corresponding to 6-keto-PGF1 α (a stable end product of prostacyclin biotransformation) and PGE2 are transferred to liquid scintillation vials and counted. The ratio of counts for 6-keto-PGF1 α/PGE2 is calculated for each concentration of test compound used. IC50 values for inhibition are determined graphically as the concentration of test compound at which the ratio of 6-keto-PGF1 α/PGE2 is reduced to 50% of the control value.

thromboxane B2 = test: plasma levels of thromboxane B2 in vivo after ionophore A23187 in rats; details: rat, oral dose as low as 0.10 mg/kg
Method: (§1) The inhibition of the synthesis and the reduction of plasma levels of thromboxane is determined in vivo on administration to rats in the following manner (as adapted from the procedures described by Tai et al. in Anal. Biochem. 87:343, 1978 and by Salmon in Prostaglglandins 15:383, 1978):
(§2) Rats are dosed with vehicle or test drug and injected intravenously with ionophore A23187 (0.5 mg/kg) two hours later. Blood is collected for analysis 2 minutes after the ionophore injection. A single aliquot of each plasma sample is assayed for thromboxane B2 and another aliquot for 6-keto-PGF1 α, the stable metabolites of thromboxane A2 and prostacyclin (PGI2) respectively, by radioimmunoassay.

prostacyclin (PGI2) = test: plasma levels of prostacyclin in vivo after ionophore A23187 in rats; details: rat, oral dose 0.10 mg/kg or higher
Method: as §1, §2

platelet aggregation = test: inhibition of variously induced platelet aggregation
thrombocytopenia = test: inhibition of thrombocytopenia
[3] = prolongation of bleeding time in the rat; type: in vivo; details: oral, dose of about 30 mg/kg
Source text: Experimentally, prolongation of bleeding time in the rat is indicative of a beneficial antithrombotic effect.

[4] = test system: arachidonic acid induced pulmonary obstruction; test: protection against sudden death due to arachidonic acid induced pulmonary obstruction; type: in vivo; details: mice, oral, 100 mg/kg
thromboxane synthetase = molecular target: T3, thromboxane synthetase (Homo sapiens, UniProt P24557); test: in vitro inhibition of the thromboxane synthetase enzyme; type: biochemical; details: ratio TxB2/PGF2α+β reduced to 50% of control
T3 construct: crude microsomal preparation of thromboxane synthetase from lysed human platelets; from tissue; host or cells: lysed human platelets, crude microsomal preparation
T3 sequence (P24557 1-533): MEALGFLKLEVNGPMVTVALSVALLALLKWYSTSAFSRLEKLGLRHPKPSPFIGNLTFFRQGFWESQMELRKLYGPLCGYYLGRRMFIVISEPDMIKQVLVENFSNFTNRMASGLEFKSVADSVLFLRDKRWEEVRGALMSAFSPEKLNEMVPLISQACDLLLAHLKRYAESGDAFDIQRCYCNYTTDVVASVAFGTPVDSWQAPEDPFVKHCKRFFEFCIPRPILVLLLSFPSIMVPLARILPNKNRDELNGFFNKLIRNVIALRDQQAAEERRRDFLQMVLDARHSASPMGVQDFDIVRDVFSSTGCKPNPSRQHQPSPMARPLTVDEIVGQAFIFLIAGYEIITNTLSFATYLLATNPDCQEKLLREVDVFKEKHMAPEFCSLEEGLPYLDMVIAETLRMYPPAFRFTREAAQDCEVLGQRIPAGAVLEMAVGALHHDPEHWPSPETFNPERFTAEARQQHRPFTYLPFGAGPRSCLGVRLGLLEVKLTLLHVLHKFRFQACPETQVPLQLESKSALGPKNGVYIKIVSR
Method: Res. Comm. 74, 1432 (1977); the testi g procedure is as follows:
^14 C-Archidonic acid is incubated with an enzyme consisting of solubilized and partially purified prostaglandin cyclo-oxygenase from sheep seminal vesicles and a crude microsomal preparation of thromboxane synthetase from lysed human platelets. The test compound (dissolved in buffer, or if necessary, in a small amount of ethanol) is added to the incubation medium. At the end of the incubation period (30 minutes), Prostaglandin E2 (PGE2) is reduced to a mixture of Prostaglandin F2 α and F2 β (PGF2α+β) by addition of sodium borohydride. The radioactive products and excess substrate are extracted into ethyl acetate; the extract is evaporated to dryness; the residue is dissolved in acetone, spotted on thin-layer plates and chromatographed in the solvent system toluene:acetone:glacial acetic acid (100 volumes:100 volumes:3 volumes). The radioactive zones are located; those corresponding to Thromboxane B2 (TxB2) and PGF2 α+β are transferred to liquid scintillatiopn vials and counted. The ratio of counts for TxB2 /PGF2 α+β is calculated for each concentration of test compound and IC50 values are determined graphically as the concentration of test compound at which the ratio of TxB2 /PGF2 α+β is reduced to 50% of the control value.

Which IC50 [1] does the source give for Cc1c(-c2cccnc2)n(CCCCCCCC(=O)O)c2ccccc12 [Example 1, 1-(7-carboxyheptyl)-3-methyl-2-(3-pyridyl)indole] here?
The IC50 was ~100000 nM.

And the IC50 [2]?
The IC50 was ~100000 nM.

And the “decrease of the plasma concentration of thromboxane B2” value (thromboxane B2)?
Its value is “over 50%”.

And the “plasma level of prostacyclin” value (prostacyclin (PGI2))?
The value was “a surprising increase”.

What about the “inhibition of variously induced platelet aggregation” value (platelet aggregation) of the same molecule?
The value was “inhibits”.

And the inhibition of thrombocytopenia (thrombocytopenia)?
Its inhibition of thrombocytopenia is “inhibits”.

What about the bleeding time [3] of the same molecule?
Its bleeding time is “prolongs bleeding time”.

What about the “protection against sudden death” value [4] of the same molecule?
Its value is “protects against sudden death”.

With Cc1c(-c2cccnc2)n(CCCCCC(=O)O)c2ccc(Cl)cc12 [Example 7, 1-(5-carboxypentyl)-5-chloro-3-methyl-2-(3-pyridyl)indole] as the molecule, how does the IC50 (thromboxane synthetase) read?
Its IC50 is 1 nM.

Which IC50 (thromboxane synthetase) does the source give for Cc1c(-c2cccnc2)n(CCCCCC(=O)O)c2ccc(CCC(=O)O)cc12 [Example 9, 1-(5-carboxypentyl)-5-(2-carboxyethyl)-3-methyl-2-(3-pyridyl)indole] here?
Its IC50 is 20 nM.

Which IC50 (thromboxane synthetase) does the source give for Cc1c(-c2cccnc2)n(Cc2ccc(C(=O)O)cc2)c2ccccc12 [Example 11, 1-(4-carboxybenzyl)-3-methyl-2-(3-pyridyl)indole] here?
The IC50 was 50 nM.

Which IC50 (thromboxane synthetase) does the source give for Cc1c(-c2cccnc2)n(CCCCCC(N)=O)c2ccc(Cl)cc12 [Example 13, 1-(5-carbamoylpentyl)-5-chloro-3-methyl-2-(3-pyridyl)indole] here?
Its IC50 is 10 nM.
